Laboratory results: patent US20240409517A1, “ORGANIC COMPOUNDS” (GIVAUDAN SA, priority 2021, published 2024)

Experiments:
Type in all cases: in vivo
sensory panel [1] = assay: Bitter masking in 0.3% KCl solution, sensory panel; conditions: 0.3% KCl with 50 ppm compound, compared with 0.3% KCl alone
Source text: (§1) The solutions were tasted by a sensory panel.

sensory panel [2] = assay: Salt enhancement in 0.5% NaCl aqueous solution, sensory panel; conditions: 0.5% NaCl aq. solution with 50 ppm compound, compared with 0.5% NaCl alone
Source text: The solutions were tasted by a sensory panel. Solution A was describes as “salty”.
Aqueous solutions comprising 0.5% NaCl and 50 ppm of the compounds of example 2-21, respectively, have been prepared and tasted by a sensory panel in comparison with an aqueous solution comprising 0.5% NaCl.
Aqueous solutions comprising 0.5% NaCl and 50 ppm of the compounds of example 38-58, respectively, have been prepared and tasted by a sensory panel in comparison with an aqueous solution comprising 0.5% NaCl.

sensory panel [3] = assay: Umami enhancement in savoury model solution (NaCl, MSG, Ribotides), sensory panel; conditions: 0.5% NaCl, 0.03% MSG, 0.007% Ribotides with 50 ppm compound, compared with solution A without compound
Source text: The solutions were tasted by a sensory panel. Solution A is a model solution for savoury taste, containing MSG (monosodium glutamate) and Ribotides (IMP/GMP, 50/50 mixture) as savoury taste enhancer.
Two aqueous solutions have been prepared: • A) 0.5% NaCl, 0.03% MSG, 0.007% Ribotides, and • B) 0.5% NaCl, 0.03% MSG, 0.007% Ribotides and 50 ppm of the compound of example 38-58, respectively.

sensory panel [4] = assay: Effect on processed meat, sensory panel; conditions: 70 ppm compound
Source text: Samples of processed meat with full salt flavor and sodium reduced flavor have been tasted by a sensory panel with and without the compound of example 1.
Sample 1 was comprising a full salt flavor base.
Sample 2 was comprising a full salt flavor base and 70 ppm of the compound of example 1.
Sample 3 was comprising a salt reduced (33.3%) flavor base and a saltiness flavor modulator.comprising KCl.
Sample 4 was comprising a salt reduced (33.3%) flavor base, a saltiness flavor modulator.comprising KCl, and 70 ppm of the compound of example 1.

sensory panel [5] = assay: Effect on corn curls with cheese flavor, sensory panel; conditions: 70 ppm compound
Source text: Corn curls with cheese flavor with and without addition of the compound of example 1 have been compared by a sensory panel.

sensory panel [6] = assay: Effect on soy based vegan burger, sensory panel; conditions: 70 ppm compound
Source text: Soy based vegan burgers with and without the compound of example 1 have been tasted by a sensory panel.

sensory panel [7] = assay: Effect on cheese sauce, sensory panel; conditions: 50 ppm compound
Source text: The effect of the compound of example 1 on cheese sauce was explored. Therefore, a cheese sauce has been compared by a sensory panel with a sample of the sauce further comprising 50 ppm of the compound of example 1.

sensory panel [8] = assay: Effect on potato chips, sensory panel; conditions: potato chips with 1.5% salt, 70 ppm compound
Source text: Potato chips with 1.5% salt have been tasted by a sensory panel with and without additional compound of example 1.

sensory panel [9] = assay: Taste in water by a sensory panel
sensory panel [10] = assay: Salt enhancement in 0.3% NaCl solution at different concentrations, sensory panel
sensory panel [11] = assay: Effect on mayonnaise, sensory panel; conditions: commercially available mayonnaise, 70 ppm compound
Source text: Samples of commercially available mayonnaise with and without addition of the compound of example 1 have been compared by a sensory panel.

sensory panel [12] = assay: Effect on vegan cheese, sensory panel; conditions: vegan cheese with 0.2% cheese parmesan natural flavor, 70 ppm compound
Source text: Samples of vegan cheese comprising 0.2% cheese parmesan natural flavor have been compared with and without the compound of example 1 by a sensory panel.

sensory panel [13] = assay: Effect on model broth base, sensory panel; conditions: model broth base with 0.3% NaCl, 50 ppm compound
Source text: A model broth base, comprising 0.3% of NaCl was compared with a sample further comprising 50 ppm of the compound of example 1.
as §1

## O=C(/C=C/c1c[nH]cn1)NCCc1c[nH]cn1 [Example 1, (2E)-3-(1H-imidazol-4-yl)-N-[2-(1H-imidazol-4-yl)ethyl]prop-2-enamide]
Sensory panel [1]
  bitter and salty taste versus 0.3% KCl solution: less bitter and more salty and mineral
Sensory panel [2]
  salty taste versus 0.5% NaCl solution: more salty with a mineralic note
Sensory panel [3]
  saltiness and umami versus savoury model solution: strong boost of saltiness and umami
Sensory panel [4]; full salt flavor base
  taste of processed meat, sample 2 versus sample 1: more salty and mineral
Sensory panel [4]; salt reduced (33.3%) flavor base with saltiness flavor modulator comprising KCl
  taste of processed meat, sample 4 versus sample 1: improved salt-peak, increased salinity, prolonged saltiness, significantly reduced bitterness and astringency, and increased salivation
Sensory panel [5]
  taste versus corn curls without compound: more salty, lingering and mineralic
Sensory panel [6]
  taste versus vegan burger without compound: more salty, having a mineral linger, contributing well to the perception of a burger
Sensory panel [7]
  taste versus plain cheese sauce: more mineral and salty, with a mineralic linger, and having a natural aged cheese character
Sensory panel [8]
  taste versus potato chips without compound: a higher salty impact and a lingering effect
Sensory panel [9]; 50 ppm or higher, noticeable up to 1000 ppm
  taste effect in water: slight effect of mouth drying
Sensory panel [9]; up to 40 ppm
  taste effect in water: no effect was noticed
Sensory panel [9]; up to 1000 ppm
  taste as such in water: no taste as such was perceived, in particular no saltiness
Sensory panel [10]
  upper level at which the salt enhancing effect was perceived: up to 200 ppm
Sensory panel [10]; 1 ppm or higher
  salt enhancement in 0.3% NaCl solution: a salt enhancing effect, providing a more lingering, mineralic and fuller salt taste
Sensory panel [10]; below 1 ppm
  salt enhancement in 0.3% NaCl solution: No salt enhancement was perceived
Sensory panel [11]
  taste versus pure mayonnaise: instant tingly salty with a mineral linger and enhanced acidity
Sensory panel [12]
  taste versus vegan cheese without compound: more salty and mineral, and the overall taste is lifted
Sensory panel [13]
  acidity of the broth base: The sharp acidity of the broth base was reduced
  taste versus model broth base: more mineral and salty
